Assay type in all cases: cell-based
The subject of assay [1] is C4-2 prostate cancer cells. The assay can be described thus: In vitro cytotoxicity / cell proliferation (MTS assay). As to conditions: 48 h, C4-2, 2 days, read-out: IC50 (concentration of drug required to kill 50% of cells). The method, then:
(§1) To examine the anti-cancer activity of the CD-CUR inclusion complex (CD-30), cell proliferation assays were performed using C4-2 and DU145 prostate cancer cell lines. Prostate cancer cells (5000 cells/well in 100 μL media) were seeded in 96-well plates and allowed to attach overnight. […] Media containing equivalent amounts of CD in PBS or DMSO was used as the control. […] The reagent (25 μL/well) was added to each well and plates were incubated for 3 hrs at 37° C. The color intensity was measured at 492 nm using a microplate reader (BioMate 3 UV-Vis spectrophotometer, Thermo Electron Corporation, Hudson, N.H.). […] Just before adding MTS reagents, representative phase contrast microscope images of cells were taken using an Olympus BX 41 microscope (Olympus, Center Valley, Pa., USA).
On the technique in general: Tetrazolium dyes change colour on reduction, which living cells bring about.

Assay [2] deals with DU145 prostate cancer cells. Described as above. To be noted: Homo sapiens, DU-145, 48 h, DU145, 2 days, read-out: IC50 (concentration of drug required to kill 50% of cells). The method, then:
as §1

Assay [3] has as its system C4-2 prostate cancer cells. The assay can be described thus: Colony formation (clonogenic) assay. To be noted: C4-2, 2 μM, 10 day period. The method, then:
(§2) Prostate cancer cells (1000) were seeded in 2 mL media in 6-well plates and allowed 2-3 days to attach and initiate the colony formations. […] The plates were then washed twice with PBS, fixed in chilled methanol, stained with hematoxylin (Fisher Scientific, Fair Lawn, N.J., USA), washed with water and air dried. The number of colonies was counted by a MultiImage™ Cabinet (Alpha Innotech Corporation, San Leandro, Calif., USA) using AlphaEase Fc software. The percent of colonies was calculated using the number of colonies formed in treatment divided by number of colonies formed in DMSO or CD in PBS controls.

Assay [4] concerns DU145 prostate cancer cells. The assay can be described thus: Colony formation (clonogenic) assay. As to conditions: DU145, 2 μM, 10 day period. As for the experimental part: as §2

Molecules are shown by their SMILES.

Regarding `COc1cc(/C=C/C(=O)CC(=O)/C=C/c2ccc(O)c(OC)c2)ccc1O` [CUR, bis(4-hydroxy-3-methoxyphenyl)-1,6-diene-3,5-dione], the IC50 in assay [1] came to 19.6 µM; in assay [2] it was 18.4 µM. The “colonies, percent of DMSO or CD control” value in assay [3] stood at 96%; in assay [4], 74%.
